# According to publication PMC3870094 (Environmental science & technology, 2013):
# “And” between values parts separate entries of the source, which are not always exact repeats. Equal entries are not always repeated.
# Columns and labels:
# [1] = target: T1, Rat CYP2B1 (Rattus norvegicus, UniProt P00176); conditions: for Depletion of OH-PCB after 60 min: rat CYP2B1, OH-PCB as substrate; for EF of OH-PCB substrate after biotransformation: rat CYP2B1, racemic OH-PCB as substrate; for Average EF of 5-OH-PCB metabolite: formed from parent PCB by rat CYP2B1, 60 min, two enantioselective columns; for Biotransformation activity of atropisomer compared with antipode: Fig. 1A1; for Formation of 4,5-DiOH-PCB from PCB: Fig. 1B1; for 4-OH-PCB metabolites detected by GC-ECD: not confirmed by GC-MS; for Depletion of PCB after 60 min incubation: rat CYP2B1, 1000 ng/mL PCB
# T1 sequence (P00176 1-491): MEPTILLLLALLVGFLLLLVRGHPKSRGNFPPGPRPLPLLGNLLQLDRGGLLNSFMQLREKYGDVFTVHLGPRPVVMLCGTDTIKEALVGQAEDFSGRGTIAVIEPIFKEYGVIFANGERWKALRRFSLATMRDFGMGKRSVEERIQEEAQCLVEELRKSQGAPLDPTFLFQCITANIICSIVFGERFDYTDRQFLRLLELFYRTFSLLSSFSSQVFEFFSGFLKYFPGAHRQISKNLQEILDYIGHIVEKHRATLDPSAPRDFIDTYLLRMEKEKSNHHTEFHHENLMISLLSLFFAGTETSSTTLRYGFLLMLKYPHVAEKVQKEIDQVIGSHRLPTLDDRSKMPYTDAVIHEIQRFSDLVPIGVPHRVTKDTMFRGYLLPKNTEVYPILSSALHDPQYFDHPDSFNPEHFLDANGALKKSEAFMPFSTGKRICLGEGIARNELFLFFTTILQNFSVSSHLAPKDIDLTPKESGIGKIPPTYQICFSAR
# [2] = target: T1, Rat CYP2B1; format: in vitro ADME; conditions: for Formation of metabolite with increases in initial (+)-PCB 136 concentration: 500 ng (−)-PCB 136 as major substrate
# [3] = cited from earlier work; for EF of OH-PCB 95 in the liver: female C57Bl/6 mice
# [4] = tested on: rat liver microsomes; conditions: cited from earlier work
# [5] = Sprague-Dawley rats, intraperitoneal injection of PCB 136; cited from earlier work
# [6] = cited from earlier work
compound,measurement,setting,value
"Oc1c(O)c(Cl)c(-c2cc(Cl)ccc2Cl)c(Cl)c1Cl [4,5-95, 3,4-dihydroxy −2,2',5,5',6-pentachlorobiphenyl]","EF of 4,5-95 formed","[1]; rat CYP2B1, 4-95 incubation, 60 min",0.53
"Oc1c(O)c(Cl)c(-c2c(Cl)ccc(Cl)c2Cl)c(Cl)c1Cl [4,5-136, 3,4-dihydroxy −2,2',3',5,6,6'-hexachlorobiphenyl]",Formation of metabolite with increases in initial (+)-PCB 136 concentration,[2]; 60 min,significantly decreased
"Oc1cc(Cl)c(-c2cc(Cl)ccc2Cl)c(Cl)c1Cl [4-95, 2,2',3,5',6-pentachlorobiphenyl-4-ol]",EF of OH-PCB 95 in the liver,[3],about 0.20
same,Depletion of OH-PCB after 60 min,[1]; 60 min,40%
same,EF of OH-PCB substrate after biotransformation,[1]; 60 min,0.62
"Oc1cc(Cl)c(-c2c(Cl)ccc(Cl)c2Cl)c(Cl)c1Cl [4-136, 2,2',3,3',6,6'-hexachlorobiphenyl-4-ol]",Formation of metabolite with increases in initial (−)-PCB 136 concentration,"[2]; 500 ng (+)-PCB 136 as major substrate, 60 min",significant increase
same,Formation of metabolite with increases in initial (+)-PCB 136 concentration,[2]; 60 min,significantly decreased
"Oc1cc(Cl)c(Cl)c(-c2ccc(Cl)cc2Cl)c1Cl [5-91, 2,2',3,4',6-pentachlorobiphenyl-5-ol]",Average EF of 5-OH-PCB metabolite,[1],0.17
same,EF of 5-OH-PCB from incubation of parent PCB with rat liver microsomes,[4],0.54
"Oc1cc(Cl)c(Cl)c(-c2cc(Cl)ccc2Cl)c1Cl [5-95, 2,2',3,5',6-pentachlorobiphenyl-5-ol]",EF of OH-PCB 95 in the liver,[3],~0.65
same,Average EF of 5-OH-PCB metabolite,[1],0.20 and ~ 0.20
same,Biotransformation activity of 5-95 compared with 4-95,"[1]; rat CYP2B1, 60 min, Fig. 2A1",significantly greater biotransformation activity
same,Depletion of OH-PCB after 60 min,[1]; 60 min,64%
same,EF of OH-PCB substrate after biotransformation,[1]; 60 min,0.46
same,EF of 5-OH-PCB from incubation of parent PCB with rat liver microsomes,[4],0.36
"Oc1cc(Cl)c(Cl)c(-c2c(Cl)ccc(Cl)c2Cl)c1Cl [5-136, 2,2',3,3',6,6'-hexachlorobiphenyl-5-ol]",Average EF of 5-OH-PCB metabolite,[1],0.77
same,Formation of metabolite with increases in initial (+)-PCB 136 concentration,[2]; 60 min,not influenced
same,EF of 5-OH-PCB from incubation of parent PCB with rat liver microsomes,[4],0.70
same,EF of 5-136 in livers,[5],≈ 0.4
"Oc1cc(Cl)c(Cl)c(-c2cc(Cl)c(Cl)cc2Cl)c1Cl [5-149, 2,2',4',5,5',6-hexachlorobiphenyl-3-ol]",Average EF of 5-OH-PCB metabolite,[1],0.41
same,EF of 5-OH-PCB from incubation of parent PCB with rat liver microsomes,[4],0.66
"Oc1cc(Cl)c(Cl)c(-c2ccc(Cl)c(Cl)c2Cl)c1Cl [5’-132, 2,2',3,3',4',6-hexachlorobiphenyl-5-ol]",Average EF of 5-OH-PCB metabolite,[1],0.85
same,EF of 5-OH-PCB from incubation of parent PCB with rat liver microsomes,[4],0.30
Clc1ccc(Cl)c(-c2c(Cl)ccc(Cl)c2Cl)c1Cl [(+)-PCB 136],Biotransformation activity of atropisomer compared with antipode,"[1]; rat CYP2B1, 60 min",significantly higher than their respective antipodes
same,Biotransformation activity of (+)-PCB 136 in the presence of (−)-PCB 136,"[2]; 500 ng (+)-PCB 136, 0-500 ng/mL (−)-PCB 136, 60 min",not significantly affected
Clc1ccc(-c2c(Cl)ccc(Cl)c2Cl)c(Cl)c1Cl [(−)-132],Biotransformation activity of atropisomer compared with antipode,"[1]; rat CYP2B1, 60 min",significantly higher than their respective antipodes
Clc1ccc(Cl)c(-c2c(Cl)ccc(Cl)c2Cl)c1Cl [(−)-PCB 136],5-136 atropisomer formed in pure atropisomer incubation,"[2]; pure (−)-PCB 136 incubations, Fig. 4A2",E1-5-136 was the only metabolite
Clc1ccc(-c2c(Cl)ccc(Cl)c2Cl)c(Cl)c1 [E1-91],Biotransformation activity of atropisomer compared with antipode,"[1]; rat CYP2B1, 60 min",significantly higher than their respective antipodes
Clc1ccc(Cl)c(-c2c(Cl)ccc(Cl)c2Cl)c1 [E2-95],Biotransformation activity of atropisomer compared with antipode,"[1]; rat CYP2B1, 60 min",significantly higher than their respective antipodes
"Clc1ccc(-c2c(Cl)ccc(Cl)c2Cl)c(Cl)c1 [PCB 91, 2,2',3,4',6-pentachlorobiphenyl]","Formation of 4,5-DiOH-PCB from PCB","[1]; rat CYP2B1, 60 min",minor metabolites
same,4-OH-PCB metabolites detected by GC-ECD,"[1]; rat CYP2B1, 60 min",minor products
same,Yield of 5-OH-PCB metabolite in rat liver microsomal studies,[4],20%
"Clc1ccc(Cl)c(-c2c(Cl)ccc(Cl)c2Cl)c1 [PCB 95, 2,2',3,5',6-pentachlorobiphenyl]",EF of PCB in vivo in rats,[6],> 0.5
same,4-OH-PCB metabolites detected by GC-ECD,"[1]; rat CYP2B1, 60 min",minor products
same,Yield of 5-OH-PCB metabolite in rat liver microsomal studies,[4],8.8%
"Clc1ccc(-c2c(Cl)ccc(Cl)c2Cl)c(Cl)c1Cl [PCB 132, 2,2',3,3',4,6'-hexachlorobiphenyl]",Depletion of PCB after 60 min incubation,[1]; 60 min,11%
same,Yield of 5-OH-PCB metabolite in rat liver microsomal studies,[4],16%
"Clc1ccc(Cl)c(-c2c(Cl)ccc(Cl)c2Cl)c1Cl [PCB 136, 2,2',3,3',6,6'-hexachlorobiphenyl]",EF of PCB in mice tissues after oral administration,"[3]; C57Bl/6 female mice tissues, oral administration",~0.7
same,Depletion of PCB after 60 min incubation,[1]; 60 min,21%
same,"Formation of 4,5-DiOH-PCB from PCB","[1]; rat CYP2B1, 60 min",minor metabolites
same,4-OH-PCB metabolites detected by GC-ECD,"[1]; rat CYP2B1, 60 min",minor products
same,EF of PCB after 30 min microsomal incubation,[4]; 30 min,0.40
same,Yield of 5-OH-PCB metabolite in rat liver microsomal studies,[4],22%
"Clc1cc(Cl)c(-c2c(Cl)ccc(Cl)c2Cl)cc1Cl [PCB 149, 2,2',3,4',5',6-hexachlorobiphenyl]",Depletion of PCB after 60 min incubation,[1]; 60 min,4%
same,Stereoselectivity of biotransformation,"[1]; rat CYP2B1, 60 min",no apparent stereoselectivity
same,EF of PCB 149 after 30 min biotransformation by rat liver microsomes,[4]; 30 min,0.46
same,Yield of 5-OH-PCB metabolite in rat liver microsomal studies,[4],2.6%
